For one assay, the target named is JAK 1 (Homo sapiens (Human), UniProt P23458). Nature of the assay: Biochemical potency on JAK1, TR-FRET LANCE Ultra kinase assay (compounds 1-92). Conditions: ATP at Km, read-out: JAK1 inhibitory activity (pIC50 class) (converted). In a few lines: (§1)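 TR-FRET (LANCE Ultra) phosphorylation of ULight-JAK-1 peptide, ATP at Km: JAK1/JAK2/JAK3/TYK2 peptide 30/50/20/10 nM, ATP 20/0.7/0.2/12 μM, enzyme 0.15/0.083/0.025/0.144 ng/μL. 11-point 5-fold series from 20 μM; 1.5 h RT, EDTA stop, Eu-anti-pTyr detection 1 h; IC50 by variable-slope fit.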
JAK 1, sequence (P23458 whole entry): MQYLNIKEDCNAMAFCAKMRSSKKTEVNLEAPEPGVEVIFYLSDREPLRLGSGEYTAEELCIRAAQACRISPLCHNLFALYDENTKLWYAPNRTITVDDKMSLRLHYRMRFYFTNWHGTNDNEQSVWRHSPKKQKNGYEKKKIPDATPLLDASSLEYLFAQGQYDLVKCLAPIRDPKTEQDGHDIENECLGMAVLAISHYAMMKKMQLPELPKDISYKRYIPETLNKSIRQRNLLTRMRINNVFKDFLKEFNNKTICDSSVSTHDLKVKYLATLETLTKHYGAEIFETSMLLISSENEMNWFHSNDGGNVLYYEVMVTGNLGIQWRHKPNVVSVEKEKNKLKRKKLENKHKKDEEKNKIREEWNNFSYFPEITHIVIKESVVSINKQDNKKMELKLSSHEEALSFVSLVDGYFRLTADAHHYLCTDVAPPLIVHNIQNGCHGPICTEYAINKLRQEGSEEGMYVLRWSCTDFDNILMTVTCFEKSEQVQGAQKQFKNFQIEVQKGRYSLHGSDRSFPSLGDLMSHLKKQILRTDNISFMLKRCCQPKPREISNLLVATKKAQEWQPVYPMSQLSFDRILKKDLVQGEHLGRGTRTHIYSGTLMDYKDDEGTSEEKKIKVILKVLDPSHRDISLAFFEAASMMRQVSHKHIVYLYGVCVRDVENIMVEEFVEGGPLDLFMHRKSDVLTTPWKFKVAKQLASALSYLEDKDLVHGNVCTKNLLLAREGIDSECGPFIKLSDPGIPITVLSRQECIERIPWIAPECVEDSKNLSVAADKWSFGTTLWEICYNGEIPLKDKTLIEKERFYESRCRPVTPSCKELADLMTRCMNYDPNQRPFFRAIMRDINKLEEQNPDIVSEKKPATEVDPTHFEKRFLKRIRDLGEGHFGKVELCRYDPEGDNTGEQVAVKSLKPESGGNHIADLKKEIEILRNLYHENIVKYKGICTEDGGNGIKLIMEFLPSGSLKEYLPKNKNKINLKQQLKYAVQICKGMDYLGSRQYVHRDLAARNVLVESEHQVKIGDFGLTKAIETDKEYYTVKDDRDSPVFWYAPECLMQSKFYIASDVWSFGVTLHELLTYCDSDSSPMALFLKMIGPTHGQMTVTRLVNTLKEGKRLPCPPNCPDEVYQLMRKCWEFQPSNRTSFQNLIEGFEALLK
Background: TR-FRET usually uses a lanthanide donor and a delayed reading to cut background.

The next assay concerns the target JAK 2 (Homo sapiens (Human), UniProt O60674). Nature of the assay: Biochemical potency on JAK2, TR-FRET LANCE Ultra kinase assay (compounds 1-92). The conditions noted are these: ATP at Km, read-out: JAK2 inhibitory activity (pIC50 class) (converted). The gist of the method: as §1
Another assay addresses JAK 3 (Homo sapiens (Human), UniProt P52333). Briefly: Biochemical potency on JAK3, TR-FRET LANCE Ultra kinase assay (compounds 1-92). Conditions: ATP at Km, read-out: JAK3 inhibitory activity (pIC50 class) (converted). In a few lines: as §1
The next assay concerns the target TYK2 (Homo sapiens (Human), UniProt P29597). Briefly: Biochemical potency on Tyk2, TR-FRET LANCE Ultra kinase assay (compounds 1-92). The conditions noted are these: ATP at Km, read-out: Tyk2 inhibitory activity (pIC50 class) (converted). In a few lines: as §1

JAK 2, sequence (O60674 whole entry): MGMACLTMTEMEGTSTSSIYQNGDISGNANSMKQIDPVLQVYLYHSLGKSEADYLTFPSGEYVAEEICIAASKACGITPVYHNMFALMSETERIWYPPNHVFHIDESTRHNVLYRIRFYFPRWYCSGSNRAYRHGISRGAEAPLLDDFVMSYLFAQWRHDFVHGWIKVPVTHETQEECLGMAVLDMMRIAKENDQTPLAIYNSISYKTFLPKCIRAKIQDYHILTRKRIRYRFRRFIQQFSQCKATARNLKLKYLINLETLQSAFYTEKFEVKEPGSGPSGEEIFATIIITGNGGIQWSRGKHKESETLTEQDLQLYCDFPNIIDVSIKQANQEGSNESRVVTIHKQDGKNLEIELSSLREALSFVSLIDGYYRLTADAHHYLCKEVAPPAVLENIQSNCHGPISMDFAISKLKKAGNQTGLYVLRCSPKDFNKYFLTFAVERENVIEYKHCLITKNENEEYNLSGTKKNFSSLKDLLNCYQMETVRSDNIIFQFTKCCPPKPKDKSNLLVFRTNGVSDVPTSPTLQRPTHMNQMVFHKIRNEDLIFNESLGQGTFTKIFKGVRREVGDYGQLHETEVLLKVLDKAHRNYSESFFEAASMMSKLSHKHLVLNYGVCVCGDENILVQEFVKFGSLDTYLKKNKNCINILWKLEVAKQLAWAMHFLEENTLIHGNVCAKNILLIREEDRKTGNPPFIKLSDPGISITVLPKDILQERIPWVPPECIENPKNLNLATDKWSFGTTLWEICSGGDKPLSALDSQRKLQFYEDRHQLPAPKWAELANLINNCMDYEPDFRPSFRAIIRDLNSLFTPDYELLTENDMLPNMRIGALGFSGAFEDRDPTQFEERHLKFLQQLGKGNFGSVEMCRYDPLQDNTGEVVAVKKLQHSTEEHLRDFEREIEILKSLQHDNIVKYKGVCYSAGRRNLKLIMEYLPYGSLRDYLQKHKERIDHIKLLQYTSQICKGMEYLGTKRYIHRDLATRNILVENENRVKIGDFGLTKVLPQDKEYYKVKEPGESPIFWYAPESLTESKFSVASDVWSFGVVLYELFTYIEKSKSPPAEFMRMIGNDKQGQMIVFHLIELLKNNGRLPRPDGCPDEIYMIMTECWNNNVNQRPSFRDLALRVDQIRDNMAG
JAK 3, sequence (P52333 whole entry): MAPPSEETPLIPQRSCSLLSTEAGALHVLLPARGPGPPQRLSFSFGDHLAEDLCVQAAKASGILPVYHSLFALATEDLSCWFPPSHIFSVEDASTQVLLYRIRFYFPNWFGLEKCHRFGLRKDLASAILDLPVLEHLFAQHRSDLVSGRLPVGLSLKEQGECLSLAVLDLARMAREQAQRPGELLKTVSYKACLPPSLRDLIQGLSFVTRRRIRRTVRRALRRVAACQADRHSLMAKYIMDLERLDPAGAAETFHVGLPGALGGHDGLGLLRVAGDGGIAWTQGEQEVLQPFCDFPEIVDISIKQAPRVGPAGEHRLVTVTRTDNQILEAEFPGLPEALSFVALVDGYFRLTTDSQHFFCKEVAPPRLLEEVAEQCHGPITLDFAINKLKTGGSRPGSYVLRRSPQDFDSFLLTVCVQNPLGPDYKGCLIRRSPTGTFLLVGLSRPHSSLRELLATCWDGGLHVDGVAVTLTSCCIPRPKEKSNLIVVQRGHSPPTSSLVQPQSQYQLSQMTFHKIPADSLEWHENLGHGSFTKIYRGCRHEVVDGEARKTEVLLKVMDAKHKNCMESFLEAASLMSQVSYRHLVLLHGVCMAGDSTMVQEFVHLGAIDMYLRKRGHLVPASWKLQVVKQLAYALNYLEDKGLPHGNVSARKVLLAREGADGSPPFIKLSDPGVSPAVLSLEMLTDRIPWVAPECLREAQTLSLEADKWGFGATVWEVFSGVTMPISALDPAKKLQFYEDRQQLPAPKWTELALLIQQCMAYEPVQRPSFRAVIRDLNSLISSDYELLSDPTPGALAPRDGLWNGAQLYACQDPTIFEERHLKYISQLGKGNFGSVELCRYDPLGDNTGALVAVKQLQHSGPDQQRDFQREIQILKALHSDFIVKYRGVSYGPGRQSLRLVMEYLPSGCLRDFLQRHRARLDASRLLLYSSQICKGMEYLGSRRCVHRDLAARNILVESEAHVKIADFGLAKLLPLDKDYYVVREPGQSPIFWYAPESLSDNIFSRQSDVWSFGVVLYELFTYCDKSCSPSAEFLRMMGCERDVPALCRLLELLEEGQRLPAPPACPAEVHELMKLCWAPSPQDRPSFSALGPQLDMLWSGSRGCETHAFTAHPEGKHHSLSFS
TYK2, sequence (P29597 whole entry): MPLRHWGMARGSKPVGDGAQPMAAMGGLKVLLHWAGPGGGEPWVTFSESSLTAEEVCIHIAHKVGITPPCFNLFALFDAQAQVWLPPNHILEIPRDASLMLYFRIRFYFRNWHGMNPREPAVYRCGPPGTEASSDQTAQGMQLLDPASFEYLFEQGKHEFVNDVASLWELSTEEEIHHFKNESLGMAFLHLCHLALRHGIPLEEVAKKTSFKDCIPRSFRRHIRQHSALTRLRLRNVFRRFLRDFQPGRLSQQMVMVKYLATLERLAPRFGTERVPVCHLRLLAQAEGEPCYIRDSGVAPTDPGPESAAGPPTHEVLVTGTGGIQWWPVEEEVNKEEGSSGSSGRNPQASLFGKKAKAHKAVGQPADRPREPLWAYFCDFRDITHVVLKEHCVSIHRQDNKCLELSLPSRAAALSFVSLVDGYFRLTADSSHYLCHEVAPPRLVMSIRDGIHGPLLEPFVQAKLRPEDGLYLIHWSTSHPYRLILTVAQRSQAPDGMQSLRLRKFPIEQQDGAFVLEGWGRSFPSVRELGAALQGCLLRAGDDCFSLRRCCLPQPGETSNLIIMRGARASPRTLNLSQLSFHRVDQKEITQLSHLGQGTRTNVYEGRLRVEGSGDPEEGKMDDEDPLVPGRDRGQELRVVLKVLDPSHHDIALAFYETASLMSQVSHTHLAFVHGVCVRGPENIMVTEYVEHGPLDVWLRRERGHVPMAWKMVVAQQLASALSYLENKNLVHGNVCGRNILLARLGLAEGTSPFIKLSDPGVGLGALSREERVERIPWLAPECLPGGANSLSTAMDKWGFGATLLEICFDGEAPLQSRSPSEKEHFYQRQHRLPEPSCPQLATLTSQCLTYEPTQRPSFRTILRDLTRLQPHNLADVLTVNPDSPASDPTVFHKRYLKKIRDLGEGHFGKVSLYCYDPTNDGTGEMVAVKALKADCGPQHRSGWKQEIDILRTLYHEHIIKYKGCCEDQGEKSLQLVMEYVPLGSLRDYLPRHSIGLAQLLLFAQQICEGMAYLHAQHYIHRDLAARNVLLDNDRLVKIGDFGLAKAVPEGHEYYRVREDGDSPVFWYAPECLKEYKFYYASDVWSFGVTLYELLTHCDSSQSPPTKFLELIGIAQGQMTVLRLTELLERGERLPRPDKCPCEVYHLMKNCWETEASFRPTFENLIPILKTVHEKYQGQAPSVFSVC

In the case of `CCCS(=O)(=O)Nc1ccc(-n2nc(NCCN3CCOCC3)c3cnc(Nc4ncc[nH]c4=O)cc32)c(OC(F)F)c1` [Example 89, N-(3-(difluoromethoxy)-4-(3-((2-morpholinoethyl)amino)-6-((3-oxo-3,4-dihydropyrazin-2-yl)amino)-1H-pyrazolo[4,3-c]pyridin-1-yl)phenyl)propane-1-sulfonamide], the IC50 on JAK 1 was not above 5.01 nM; on JAK 2 it was not above 5.01 nM; at JAK 3, not above 5.01 nM; at TYK2 it was 5.01 to 50.1 nM.

Consider `COc1cc(CNS(C)(=O)=O)ccc1-n1nc(C(=O)NCCCN(C)C)c2cnc(-c3cnn4cccnc34)cc21` [Example 59, N-(3-(dimethylamino)propyl)-1-(2-methoxy-4-(methylsulfonamidomethyl)phenyl)-6-(pyrazolo[1,5-a]pyrimidin-3-yl)-1H-pyrazolo[4,3-c]pyridine-3-carboxamide], for which the IC50 is not above 5.01 nM on JAK 1, 5.01 to 50.1 nM at JAK 2, 5.01 to 50.1 nM at JAK 3 and 5.01 to 50.1 nM at TYK2.

`COc1cc(NS(C)(=O)=O)cnc1-n1nc(C)c2cnc(-c3cnn4cccnc34)cc21` [Example 11, N-(5-methoxy-6-(3-methyl-6-(pyrazolo[1,5-a]pyrimidin-3-yl)-1H-pyrazolo[4,3-c]pyridin-1-yl)pyridin-3-yl)methanesulfonamide]: the IC50 on JAK 1 was not above 5.01 nM; at JAK 2, not above 5.01 nM; on JAK 3, not above 5.01 nM; on TYK2, more than 50.1 nM.

On to `CNc1nn(-c2ccc(NS(C)(=O)=O)cc2OC)c2cc(-c3cnn4cccnc34)ncc12` [Example 23, N-(3-methoxy-4-(3-(methylamino)-6-(pyrazolo[1,5-a]pyrimidin-3-yl)-1H-pyrazolo[4,3-c]pyridin-1-yl)phenyl)methanesulfonamide], for which the IC50 on JAK 1 was not above 5.01 nM; on JAK 2, not above 5.01 nM; at JAK 3, not above 5.01 nM; on TYK2, 5.01 to 50.1 nM.

As to `COc1cc(NS(=O)(=O)CC2CC2)ccc1-n1nc(C)c2cnc(-c3cnn4cccnc34)cc21` [Example 5, 1-cyclopropyl-N-(3-methoxy-4-(3-methyl-6-(pyrazolo[1,5-a]pyrimidin-3-yl)-1H-pyrazolo[4,3-c]pyridin-1-yl)phenyl)methanesulfonamide], the IC50 at JAK 1 was not above 5.01 nM; at JAK 2 it was not above 5.01 nM; at JAK 3, not above 5.01 nM; on TYK2 it was 5.01 to 50.1 nM.

Consider `COc1cc(NS(=O)(=O)C2CCOCC2)ccc1-n1nc(C)c2cnc(-c3cnn4cccnc34)cc21` [Example 3, N-(3-methoxy-4-(3-methyl-6-(pyrazolo[1,5-a]pyrimidin-3-yl)-1H-pyrazolo[4,3-c]pyridin-1-yl)phenyl)tetrahydro-2H-pyran-4-sulfonamide], for which the IC50 on JAK 1 was 5.01 to 50.1 nM; at JAK 2, not above 5.01 nM; on JAK 3, 5.01 to 50.1 nM; on TYK2, more than 50.1 nM.

`COc1cc(NS(C)(=O)=O)ccc1-n1nc(NCCN(C)C)c2cnc(-c3cnn4cccnc34)cc21` [Example 31, N-(4-(3-((2-(dimethylamino)ethyl)amino)-6-(pyrazolo[1,5-a]pyrimidin-3-yl)-1H-pyrazolo[4,3-c]pyridin-1-yl)-3-methoxyphenyl)methanesulfonamide]: the IC50 is not above 5.01 nM at JAK 1, not above 5.01 nM on JAK 2, not above 5.01 nM at JAK 3 and 5.01 to 50.1 nM on TYK2.

With `CCCS(=O)(=O)Nc1ccc(-n2nc(C(=O)NCCCN(C)C)c3cnc(-c4cnn5cccnc45)cc32)c(OC)c1` [Example 46, N-(3-(dimethylamino)propyl)-1-(2-methoxy-4-(propylsulfonamido)phenyl)-6-(pyrazolo[1,5-a]pyrimidin-3-yl)-1H-pyrazolo[4,3-c]pyridine-3-carboxamide], the IC50 at JAK 1 is 5.01 to 50.1 nM; on JAK 2 it was 5.01 to 50.1 nM; at JAK 3, 5.01 to 50.1 nM; on TYK2 it was more than 50.1 nM.

Consider `COc1cc(NS(=O)(=O)C2CC2)ccc1-n1nc(NCCN(C)C)c2cnc(-c3cnn4cccnc34)cc21` [Example 32, N-(4-(3-((2-(dimethylamino)ethyl)amino)-6-(pyrazolo[1,5-a]pyrimidin-3-yl)-1H-pyrazolo[4,3-c]pyridin-1-yl)-3-methoxyphenyl)cyclopropanesulfonamide], for which the IC50 was 5.01 to 50.1 nM at JAK 1, not above 5.01 nM on JAK 2, 5.01 to 50.1 nM on JAK 3 and 5.01 to 50.1 nM at TYK2.

On to `Cc1nn(-c2ccc(NS(C)(=O)=O)cc2OC(F)F)c2cc(-c3cnn4cccnc34)ncc12` [Example 7, N-(3-(difluoromethoxy)-4-(3-methyl-6-(pyrazolo[1,5-a]pyrimidin-3-yl)-1H-pyrazolo[4,3-c]pyridin-1-yl)phenyl)methanesulfonamide], for which the IC50 is not above 5.01 nM on JAK 1, not above 5.01 nM on JAK 2, not above 5.01 nM at JAK 3 and 5.01 to 50.1 nM at TYK2.

Take `COc1cc(CN)ccc1-n1nc(C)c2cnc(-c3cnn4cccnc34)cc21` [Example 67, (3-methoxy-4-(3-methyl-6-(pyrazolo[1,5-a]pyrimidin-3-yl)-1H-pyrazolo[4,3-c]pyridin-1-yl)phenyl)methanamine]: the IC50 at JAK 1, on JAK 2, on JAK 3 and on TYK2 was more than 50.1 nM throughout.

Take `COc1cc(NS(=O)(=O)C2CC2)ccc1-n1nc(C)c2cnc(-c3cnn4cccnc34)cc21` [Example 6, N-(3-methoxy-4-(3-methyl-6-(pyrazolo[1,5-a]pyrimidin-3-yl)-1H-pyrazolo[4,3-c]pyridin-1-yl)phenyl)cyclopropanesulfonamide]: the IC50 at JAK 1 was not above 5.01 nM; on JAK 2 it was not above 5.01 nM; on JAK 3, not above 5.01 nM; on TYK2, 5.01 to 50.1 nM.

On to `COc1cc(NS(=O)(=O)CC(N)=O)ccc1-n1nc(C)c2cnc(-c3cnn4cccnc34)cc21` [Example 14, 2-(N-(3-methoxy-4-(3-methyl-6-(pyrazolo[1,5-a]pyrimidin-3-yl)-1H-pyrazolo[4,3-c]pyridin-1-yl)phenyl)sulfamoyl)acetamide], for which the IC50 at JAK 1 is not above 5.01 nM; at JAK 2, not above 5.01 nM; on JAK 3, not above 5.01 nM; on TYK2, 5.01 to 50.1 nM.

In the case of `COc1cc(NS(C)(=O)=O)ccc1-n1nc(NCC2CN(C)CCO2)c2cnc(-c3cnn4cccnc34)cc21` (racemic) [Example 28, N-(3-methoxy-4-(3-(((4-methylmorpholin-2-yl)methyl)amino)-6-(pyrazolo[1,5-a]pyrimidin-3-yl)-1H-pyrazolo[4,3-c]pyridin-1-yl)phenyl)methanesulfonamide], the IC50 on JAK 1 is not above 5.01 nM; at JAK 2 it was not above 5.01 nM; at JAK 3 it was not above 5.01 nM; on TYK2 it was 5.01 to 50.1 nM.

With `CNc1nn(-c2ccc(S(=O)(=O)NC)cc2OC)c2cc(-c3cnn4cccnc34)ncc12` [Example 51, 3-methoxy-N-methyl-4-(3-(methylamino)-6-(pyrazolo[1,5-a]pyrimidin-3-yl)-1H-pyrazolo[4,3-c]pyridin-1-yl)benzenesulfonamide], the IC50 on JAK 1 is not above 5.01 nM; at JAK 2 it was not above 5.01 nM; at JAK 3, not above 5.01 nM; at TYK2 it was 5.01 to 50.1 nM.

As to `COC(=O)NCc1ccc(-n2nc(C)c3cnc(-c4cnn5cccnc45)cc32)c(OC)c1` [Example 69, methyl (3-methoxy-4-(3-methyl-6-(pyrazolo[1,5-a]pyrimidin-3-yl)-1H-pyrazolo[4,3-c]pyridin-1-yl)benzyl)carbamate], the IC50 on JAK 1 is more than 50.1 nM; on JAK 2, 5.01 to 50.1 nM; at JAK 3 it was 5.01 to 50.1 nM; on TYK2, more than 50.1 nM.

(Values after patent US20240209001A1, “HETEROCYCLIC DERIVATIVES AS JANUS KINASE INHIBITORS” (CHIESI FARMACEUTICI S.P. A., priority 2021, published 2024).)
